{"source": "patent US11026441B2", "about": "“Avocado flesh and/or skin extract rich in polyphenols and cosmetic, dermatological and nutraceutical compositions comprising same” (Laboratoires Expanscience, priority 2010, dated 2021)", "format_in_all_cases": "cell-based", "key": {"[1]": {"test_system": "Normal human epidermal melanocytes", "test": "Melanin production by melanocytes stimulated by NDP-MSH", "conditions": "0.25 mM kojic acid; 10^−7 M NDP-MSH; 240 hours", "method": "After 240 hours of incubation, melanin was extracted from the cells and quantified by spectrophotometry. The results were analyzed statistically by a Student's t-test."}, "[2]": {"test_system": "histamine release by mastocytes", "test": "Release of histamine by mastocytes stimulated with substance P (ELISA)", "conditions": "10 nM calcium; 10 μM substance P", "method": "The mastocytes were then stimulated with 10 μM substance P for 15 minutes. At the end of incubation, the release of histamine was quantified by ELISA.\n(§1) The results were analyzed statistically by a Student's t-test."}, "[3]": {"test_system": "PGE2 production by human keratinocytes (NCTC-2544 cell line)", "test": "Production of PGE2 by PMA-stimulated keratinocytes (ELISA)", "conditions": "10^−6 M indomethacin, 0.1 μg/ml PMA"}, "[4]": {"test_system": "IL8 production by human keratinocytes (NCTC-2544 cell line)", "test": "Production of IL8 by PMA-stimulated keratinocytes (ELISA)", "conditions": "10^−7 M dexamethasone, 0.1 μg/ml PMA", "method": "The cells were then treated with 0.1 μg/ml phorbol myristate acetate (PMA) for 24 hours, always in the presence of AV or the references.\nAt the end of the treatment, the quantities of interleukin 8 (IL8) and prostaglandin E2 (PGE2) secreted were measured by ELISA in the culture supernatants.\nas §1"}, "[5]": {"test_system": "laminin-5 (subunit γ2) gene expression in normal human keratinocytes", "test": "Gene expression of laminin-5 (subunit γ2) in keratinocytes, real-time RT-PCR", "conditions": "5 ng/ml TGFβ1; 48 hours", "method": "(§2) Normal human keratinocytes were incubated for 48 hours in the presence of the avocado extract concentrated in polyphenols (AV) at concentrations of 0.001% and 0.005% (w/v of active material) or 5 ng/ml TGFβ1 (reference).\n(§3) The gene expression of MMP9 and laminin-5 (subunit γ2) was studied by real-time RT-PCR.\n(§4) The results were analyzed statistically by a one-factor ANOVA followed by a Dunnett's test: ns (not significant) p>0.05; *p<0.05; ***p<0.001."}, "[6]": {"test_system": "MMP9 gene expression in normal human keratinocytes", "test": "Gene expression of MMP9 in keratinocytes, real-time RT-PCR", "conditions": "5 ng/ml TGFβ1; 48 hours", "method": "as §2, §3, §4"}}}
{"compound": "O=c1cc(CO)occ1O", "note": "[Kojic acid, kojic acid]", "values": [{"measurement": "Change in melanin versus stimulated control", "setting": "[1]", "value": "−32", "unit": "% p < 0.001"}]}
{"compound": "[Ca+2]", "note": "[Calcium, calcium]", "values": [{"measurement": "Histamine", "setting": "[2]", "value": "21.8 ± 1.0", "unit": "ng/mL"}, {"measurement": "Inhibition of histamine release", "setting": "[2]", "value": "−85", "unit": "% p < 0.01"}]}
{"compound": "COc1ccc2c(c1)c(CC(=O)O)c(C)n2C(=O)c1ccc(Cl)cc1", "note": "[Indomethacin, indomethacin]", "values": [{"measurement": "PGE2", "setting": "[3]", "value": "0.039 ± 0.0", "unit": "ng/mL"}, {"measurement": "inhibition at 1 µM", "setting": "[3]; Homo sapiens, NCTC-2544", "value": 100, "unit": "%"}]}
{"compound": "C[C@@H]1C[C@H]2[C@@H]3CCC4=CC(=O)C=C[C@]4(C)[C@@]3(F)[C@@H](O)C[C@]2(C)[C@@]1(O)C(=O)CO", "note": "[Dexamethasone, dexamethasone]", "values": [{"measurement": "IL8", "setting": "[4]", "value": "7.4 ± 0.8", "unit": "ng/mL"}, {"measurement": "inhibition at 0.1 µM", "setting": "[4]; Homo sapiens, NCTC-2544", "value": 85, "unit": "%"}]}
{"compound": "TGFβ1: 5 ng/ml TGFβ1 (reference) in keratinocyte migration marker test", "values": [{"measurement": "Laminin-5 gene expression (relative quantity)", "setting": "[5]", "value": 11.33}, {"measurement": "Laminin-5 gene expression, change versus control cells", "setting": "[5]", "value": "+1033% ***"}, {"measurement": "MMP9 gene expression (relative quantity)", "setting": "[6]", "value": 19.84}, {"measurement": "MMP9 gene expression, change versus control cells", "setting": "[6]", "value": "+1884% ***"}]}
